Test results from the Biogen ADME set (Fang et al. 2023).
Converted amounts (≈) assume the structure as drawn.

Details: for aqueous solubility: pH 6.8

Compound | MDR1-MDCK efflux ratio | intrinsic clearance, human liver microsomes | intrinsic clearance, rat liver microsomes | aqueous solubility | fraction unbound, human plasma | fraction unbound, rat plasma
Cc1ccc(C(=O)Nc2ccccc2-c2ccccc2)o1 | 0.465 | 257 mL/min/kg | 503 mL/min/kg | 35.5 µg/mL (≈ 128 µM) | – | –
COc1ccc(Nc2nc(Cl)cc(Cl)n2)cc1 | – | 188 mL/min/kg | 170 mL/min/kg | – | – | –
Cc1cc(CO)nc(N2CCCCC2)n1 | – | 26.7 mL/min/kg | 113 mL/min/kg | – | – | –
N#Cc1cc(F)ccc1Cn1ccnc1-c1ccccn1 | – | 20.5 mL/min/kg | 415 mL/min/kg | – | – | –
Cc1csc2nc3n(c(=O)c12)CCNCC3 | 0.686 | 7.83 mL/min/kg | 228 mL/min/kg | – | – | –
COCCNc1cc(NC(=O)N2CCCc3cc(CN4CCN(C)CC4=O)c(C=O)nc32)ncc1C#N | 46 | 14.4 mL/min/kg | 24 mL/min/kg | 20 µg/mL (≈ 39.5 µM) | – | –
O=C(O)c1ccc(COc2ccc(/C=C3\SC(=O)N(Cc4ccc(F)cc4)C3=O)cc2)cc1 | – | – | – | 0.99 µg/mL (≈ 2.14 µM) | – | –
OCCn1cc(-c2ccc3c(c2)CC/C3=N\O)c(-c2ccncc2)n1 | 36.4 | 9.21 mL/min/kg | 123 mL/min/kg | 13.7 µg/mL (≈ 41 µM) | – | –
c1cn2cc(-c3ccc4cn[nH]c4c3)nc(Nc3ccc(N4CCOCC4)cc3)c2n1 | – | – | – | 0.1 µg/mL (≈ 0.243 µM) | – | –
COC(=O)c1cccc2c1CCCN2C(=O)c1ccccc1 | 0.474 | 780 mL/min/kg | 2050 mL/min/kg | – | – | –
COc1ccc(CN(C)C(=O)Nc2ccccc2)cc1F | 0.669 | 18.2 mL/min/kg | 644 mL/min/kg | 45.9 µg/mL (≈ 159 µM) | – | –
c1ccc(-c2cc3c(N4CCC(c5ncc[nH]5)CC4)ncnc3s2)cc1 | 17.8 | 117 mL/min/kg | 1550 mL/min/kg | 4.15 µg/mL (≈ 11.5 µM) | – | –
c1ccc2nc(OC3CCNCC3)cnc2c1 | – | ≤ 4.74 mL/min/kg | 183 mL/min/kg | – | – | –
Cc1nsc(NCc2cncs2)n1 | 0.684 | ≤ 4.74 mL/min/kg | 16.8 mL/min/kg | – | – | –
CCCn1cnnc1CN(C)Cc1cc(C(C)C)on1 | 15.3 | ≤ 4.74 mL/min/kg | 534 mL/min/kg | – | – | –
CN1CCc2ncnc(N3CCCN(c4nccs4)CC3)c2C1 | 4.76 | 23.3 mL/min/kg | 131 mL/min/kg | 43.2 µg/mL (≈ 131 µM) | – | –

Compound | MDR1-MDCK efflux ratio | intrinsic clearance, human liver microsomes | intrinsic clearance, rat liver microsomes | aqueous solubility | fraction unbound, human plasma | fraction unbound, rat plasma
CCOC(=O)c1cc2ccccc2n1CC(=O)c1ccc(F)cc1 | 0.662 | 756 mL/min/kg | 1890 mL/min/kg | 6.56 µg/mL (≈ 20.2 µM) | – | –
COc1cccc(-c2ocnc2C(=O)Nc2ccc(-c3ccc(C)o3)cc2)c1 | – | – | – | 0.4 µg/mL (≈ 1.07 µM) | – | –
Cc1ccccc1OCCCNc1cc(Cn2c(C)nc3ccccc32)nc(N)n1 | 21.4 | 717 mL/min/kg | 2130 mL/min/kg | 14.4 µg/mL (≈ 35.9 µM) | – | –
CN1CCC[C@H]1C(=O)N[C@@H](CO)Cc1ccccc1 | 2.77 | 7.16 mL/min/kg | 315 mL/min/kg | – | – | –
O=C(c1cccs1)N1C[C@@H]2CCCN(C(=O)c3cccs3)[C@@H]2C1 | 2.37 | 5.78 mL/min/kg | 151 mL/min/kg | 63.1 µg/mL (≈ 182 µM) | – | –
N#Cc1c(Cl)nc(N)n1-c1ccccc1 | – | 11.7 mL/min/kg | 27.7 mL/min/kg | – | – | –
Cc1cccnc1NC(=O)CCn1cnc2ccccc21 | 15.9 | ≤ 4.74 mL/min/kg | ≤ 10.7 mL/min/kg | 48.1 µg/mL (≈ 172 µM) | – | –
Cn1cc(C(=O)O)c(-c2cccnc2)n1 | – | – | – | 40.8 µg/mL (≈ 201 µM) | – | –
CC(C)(C)c1ccc(=O)n(CC2CN(CC3(O)CCCC3)C2)n1 | 18.8 | 6.33 mL/min/kg | 110 mL/min/kg | 45.8 µg/mL (≈ 143 µM) | – | –
Cc1cccnc1CNc1ccc(C#N)cc1F | 0.524 | 32.9 mL/min/kg | 161 mL/min/kg | 36 µg/mL (≈ 149 µM) | – | –
Cc1cc(C)cc(Oc2cc(C#N)ccn2)c1 | 0.559 | 48 mL/min/kg | 214 mL/min/kg | 9.73 µg/mL (≈ 43.4 µM) | – | –
[2H]C([2H])([2H])NC(=O)c1nnc(NC(=O)C2CC2)cc1Nc1cccc(-c2ncn(C)n2)c1OC | 114 | ≤ 4.74 mL/min/kg | 26.1 mL/min/kg | 17 µg/mL (≈ 39.9 µM) | 0.154 | 0.172
C#CCN1CCN(C(=O)CCS(C)(=O)=O)CC1 | – | ≤ 4.74 mL/min/kg | ≤ 10.7 mL/min/kg | 73.8 µg/mL (≈ 285 µM) | – | –
COCc1ncc(CN2CCC(Oc3cccc(C)c3)CC2)cn1 | – | 10.2 mL/min/kg | 131 mL/min/kg | – | – | –
Cc1cc(N2CCCC2c2cc(CCC(=O)O)cc(C)n2)ncn1 (stereo unspecified) | – | ≤ 4.74 mL/min/kg | ≤ 10.7 mL/min/kg | – | 1 | 1
